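Test compounds were applied to cells in 96-well plates for 48 hours at 5 doses. GI50: concentration for 50% inhibition of growth. TGI: total growth inhibition.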
Assays:
Assay in all cases: NCI tumour cell line growth inhibition, 48 h
[1] = tested on: A498 renal
[2] = tested on: A549 NSCLC
[3] = tested on: ACHN renal
[4] = tested on: BT-549 breast
[5] = tested on: CCRF-CEM leukemia
[6] = tested on: COLO 205 colon
[7] = tested on: EKVX NSCLC
[8] = tested on: HOP-92 NSCLC
[9] = tested on: HS 578T breast
[10] = tested on: HT29 colon
[11] = tested on: K-562 leukemia
[12] = tested on: MDA-MB-231 breast
[13] = tested on: MDA-MB-435
[14] = tested on: MOLT-4 leukemia
[15] = tested on: NCI-H460 lung
[16] = tested on: NCI/ADR-RES ovarian
[17] = tested on: OVCAR-4 ovarian
[18] = tested on: RPMI-8226 leukemia
[19] = tested on: SNB-75 CNS
[20] = tested on: T-47D breast
[21] = tested on: TK-10 renal
[22] = tested on: UACC-257 melanoma
[23] = tested on: UO-31 renal
[24] = tested on: 786-0 renal
[25] = tested on: CAKI-1 renal
[26] = tested on: DU-145 prostate
[27] = tested on: HCT-116 colon
[28] = tested on: HCT-15 colon
[29] = tested on: HL-60(TB) leukemia
[30] = tested on: HOP-62 NSCLC
[31] = tested on: IGROV1 ovarian
[32] = tested on: KM12 colon
[33] = tested on: M14 melanoma
[34] = tested on: MCF7 breast
[35] = tested on: NCI-H226 lung
[36] = tested on: NCI-H23 lung
[37] = tested on: NCI-H522 lung
[38] = tested on: OVCAR-3 ovarian
[39] = tested on: OVCAR-5 ovarian
[40] = tested on: OVCAR-8 ovarian
[41] = tested on: PC-3 prostate
[42] = tested on: SF-268 CNS
[43] = tested on: SF-295 CNS
[44] = tested on: SF-539 CNS
[45] = tested on: SK-MEL-2 melanoma
[46] = tested on: SK-MEL-28 melanoma
[47] = tested on: SK-MEL-5 melanoma
[48] = tested on: SK-OV-3 ovarian
[49] = tested on: SN12C renal
[50] = tested on: SNB-19 CNS
[51] = tested on: SR leukemia
[52] = tested on: SW-620 colon
[53] = tested on: U251 CNS
[54] = tested on: MALME-3M melanoma
[55] = tested on: UACC-62 melanoma

Compound: N#Cc1ccc(CSc2ncnc3nc[nH]c23)cc1
- GI50 [1]: 80 µM
- GI50 [2]: 92.4 µM
- GI50 [3]: 38.4 µM
- GI50 [4]: 95 µM
- GI50 [5]: 95.1 µM
- GI50 [6]: 52.2 µM
- GI50 [7]: 90.1 µM
- GI50 [8]: 15.8 µM
- TGI [8]: 79.5 µM
- GI50 [9]: 72 µM
- GI50 [10]: 77.3 µM
- GI50 [11]: 63.7 µM
- GI50 [12]: 94.4 µM
- GI50 [13]: 79 µM
- GI50 [14]: 92.8 µM
- GI50 [15]: 43 µM
- GI50 [16]: 54.3 µM
- GI50 [17]: 97.4 µM
- GI50 [18]: 54.9 µM
- GI50 [19]: 6.86 µM
- TGI [19]: 66.3 µM
- GI50 [20]: 80.7 µM
- GI50 [21]: 37.3 µM
- GI50 [22]: 73.3 µM
- GI50 [23]: 30.7 µM

Compound: CCCCCCCCCCCC[N+](C)(C)Cc1ccccc1
- GI50 [24]: 2.37 µM
- TGI [24]: 6.15 µM
- GI50 [1]: 8.06 µM
- TGI [1]: 24.8 µM
- GI50 [2]: 2.04 µM
- TGI [2]: 5.21 µM
- GI50 [3]: 5.61 µM
- TGI [3]: 20.4 µM
- GI50 [4]: 1.74 µM
- TGI [4]: 3.29 µM
- GI50 [25]: 5.84 µM
- TGI [25]: 24.8 µM
- GI50 [5]: 1.88 µM
- TGI [5]: 5.43 µM
- GI50 [6]: 1.65 µM
- TGI [6]: 3.34 µM
- GI50 [26]: 3.61 µM
- TGI [26]: 13.6 µM
- GI50 [27]: 1.33 µM
- TGI [27]: 2.8 µM
- GI50 [28]: 13.1 µM
- TGI [28]: 34.3 µM
- GI50 [29]: 1.02 µM
- TGI [29]: 2.85 µM
- GI50 [30]: 2.69 µM
- TGI [30]: 7.27 µM
- GI50 [9]: 1.95 µM
- TGI [9]: 5.96 µM
- GI50 [10]: 1.23 µM
- TGI [10]: 3.24 µM
- GI50 [31]: 1.43 µM
- TGI [31]: 3.66 µM
- GI50 [11]: 1.56 µM
- TGI [11]: 6.63 µM
- GI50 [32]: 1.48 µM
- TGI [32]: 3.14 µM
- GI50 [33]: 1.92 µM
- TGI [33]: 4.32 µM
- GI50 [34]: 2.01 µM
- TGI [34]: 7.7 µM
- GI50 [12]: 1.62 µM
- TGI [12]: 3.81 µM
- GI50 [13]: 1.58 µM
- TGI [13]: 3.72 µM
- GI50 [14]: 2.18 µM
- TGI [14]: 5.4 µM
- GI50 [35]: 2.84 µM
- TGI [35]: 18.6 µM
- GI50 [36]: 2.5 µM
- TGI [36]: 10.2 µM
- GI50 [15]: 3.42 µM
- TGI [15]: 12.7 µM
- GI50 [37]: 1.53 µM
- TGI [37]: 3.95 µM
- GI50 [16]: 41.9 µM
- TGI [16]: > 100 µM
- GI50 [38]: 1.71 µM
- TGI [38]: 4.02 µM
- GI50 [17]: 1.82 µM
- TGI [17]: 7.68 µM
- GI50 [39]: 2.86 µM
- TGI [39]: 13.5 µM
- GI50 [40]: 2.16 µM
- TGI [40]: 6.75 µM
- GI50 [41]: 0.49 µM
- TGI [41]: 3.25 µM
- GI50 [18]: 1.28 µM
- TGI [18]: 3.31 µM
- GI50 [42]: 2.02 µM
- TGI [42]: 4.45 µM
- GI50 [43]: 2.82 µM
- TGI [43]: 12.2 µM
- GI50 [44]: 1.66 µM
- TGI [44]: 3.17 µM
- GI50 [45]: 1.97 µM
- TGI [45]: 3.6 µM
- GI50 [46]: 2.06 µM
- TGI [46]: 4.34 µM
- GI50 [47]: 1.33 µM
- TGI [47]: 2.62 µM
- GI50 [48]: 3.05 µM
- TGI [48]: 10.7 µM
- GI50 [49]: 2.11 µM
- TGI [49]: 5.12 µM
- GI50 [50]: 2.11 µM
- TGI [50]: 7.12 µM
- GI50 [19]: 1.45 µM
- TGI [19]: 3.53 µM
- GI50 [51]: 1.83 µM
- TGI [51]: 5.16 µM
- GI50 [52]: 2.69 µM
- TGI [52]: 12.1 µM
- GI50 [20]: 2.68 µM
- TGI [20]: 15.5 µM
- GI50 [53]: 1.48 µM
- TGI [53]: 3.51 µM
- GI50 [22]: 1.82 µM
- TGI [22]: 4.25 µM
- GI50 [23]: 10 µM
- TGI [23]: 25.9 µM

Compound: CCCCNCCC(O)c1cc2ccc(C(F)(F)F)cc2c2cc(C(F)(F)F)ccc12 (stereo not drawn)
- GI50 [1]: 1.32 µM
- TGI [1]: 2.64 µM
- GI50 [6]: 0.339 µM
- TGI [6]: 1.07 µM
- GI50 [26]: 1.87 µM
- TGI [26]: 3.38 µM
- GI50 [8]: 1.1 µM
- TGI [8]: 2.44 µM
- GI50 [54]: 1.96 µM
- TGI [54]: 3.87 µM
- GI50 [39]: 1.61 µM
- TGI [39]: 3.13 µM
- GI50 [18]: 2.04 µM
- TGI [18]: 4.63 µM
- GI50 [47]: 1.69 µM
- TGI [47]: 3.06 µM
- GI50 [49]: 1.82 µM
- TGI [49]: 3.41 µM
- GI50 [52]: 1.3 µM
- TGI [52]: 2.79 µM
- GI50 [21]: 1.88 µM
- TGI [21]: 3.39 µM
- GI50 [22]: 1.52 µM
- TGI [22]: 3.02 µM
- GI50 [55]: 1.78 µM
- TGI [55]: 3.35 µM

Compound: COc1ccc(N2C(=O)/C(=C/C(Cl)=C/c3ccc([N+](=O)[O-])cc3)SC2=S)cc1
- GI50 [30]: 2.12 µM
- TGI [30]: > 100 µM
- GI50 [9]: 3.28 µM
- TGI [9]: > 37.9 µM
- GI50 [11]: 0.555 µM
- TGI [11]: > 100 µM
- GI50 [34]: 0.393 µM
- TGI [34]: > 100 µM
- GI50 [12]: 1.69 µM
- TGI [12]: > 100 µM
- GI50 [14]: 0.679 µM
- TGI [14]: > 100 µM
- GI50 [35]: 4.23 µM
- TGI [35]: > 100 µM
- GI50 [16]: 0.562 µM
- TGI [16]: > 100 µM
- GI50 [40]: 0.462 µM
- TGI [40]: > 100 µM
- GI50 [18]: 0.268 µM
- TGI [18]: 0.727 µM
- GI50 [42]: 2.95 µM
- TGI [42]: > 100 µM
- GI50 [45]: > 21.3 µM
- TGI [45]: > 100 µM
- GI50 [51]: 0.312 µM
- TGI [51]: 22 µM
- GI50 [20]: 0.725 µM
- TGI [20]: > 100 µM
- GI50 [21]: 2.76 µM
- TGI [21]: > 100 µM
- GI50 [22]: 2.88 µM
- TGI [22]: > 100 µM
